Laboratory results published in patent US12708677B2, “Contrast agents, methods for preparing contrast agents, and methods of imaging” (Georgia State University Research Foundation, Inc., priority 2008, dated 2026).
Where two headings read alike, the source gives them in different places. One block for each molecule: values may come before it.

Experiments:
[1] = cited from earlier work; for r1: based on references
[2] = literature; cited from earlier work
[3] = literature; cited from earlier work; remark: listed apart in the source
[4] = standard curve, well-characterized chelators; cited from earlier work
[5] = literature; cited from earlier work; remark: listed apart in the source
CD-1 mice = experiment: Mouse MR imaging; assay type: in vivo; details: 3T or 9.4T
Procedure: (§1) Mouse MR Imaging. Care of experimental animals was in accordance with institutional guidelines. CD-1 mice (25-30 g, four mice were imaged) were anesthetized with an isoflurane gas mixture. The anesthetized animal was positioned and stabilized with soft-supporting material (e.g., foam) in the scanner in the coil cradle and was kept warm during the MRI scan. The mice were scanned prior to the administration of any contrast agent (pre-contrast). Approximately 50 μl of Gd-CA1.CD2 (~1.2 mM) or Gd-DTPA (~300 mM) were injected into the animal via the tail vein. MR images were collected at different times (indicated). For T1 weighted imaging at 3T, spin echo sequence with TE/TR=15 ms/500 ms was employed. Rectangular Field of View (FOV) at 100/40 mm, an acquisition matrix of 196^2 and 1.1 mm slice thickness without gap were used. Images were collected from both transverse and coronal sections. The in-plane resolution of images was less than 0.5 mm after they were reconstructed to the matrix of 196^2. For T2 weighted imaging at 9.4T, MR images were recorded using a multi-echo Carr-Purcell-Meiboom-Gill (CPMG) sequence. The data were collected and processed by Dicomworks software. The MR signal intensity in several organs was ascertained by the average intensity in ROIs or points within the organs. Signal intensity for each organ was normalized to that of the leg muscle.
as §1, with “Care” for “Mouse MR Imaging. Care”, “(e.g.” for “(e.g.,”

[6] = In vitro r1 and r2 proton relaxivity; assay type: physicochemical; details: 3.0 T; 50 μM designed agents, 100 μM Gd-DTPA
[7] = In vitro r1 and r2 proton relaxivity; assay type: physicochemical
Procedure: Determination of r1 and r2 Relaxivity Values, Relaxation times, T1 and T2, were determined at 1.5, 3, 9.4 Tesla using a Siemens whole-body MR system (1.5, 3T) or a Bruker MRI scanner (9.4T). T1 was determined using inversion recovery and T2 using a multi-echo Carr-Purcell-Meiboom-Gill (CPMG) sequence. The contrast agent samples (200 μl) with different concentrations were placed in eppendorf tubes. The tubes were placed on a tube rack, which was placed in MRI scanners for the measurement of relaxation times r1 and r2 were calculated based on r1(mM^−1 S^−1)=(1/T1s−1/T1c)/C and r2(mM^−1 S^−1)=(1/T2s−1/T2c)/C, where T1s and T2s are relaxation times with contrast agent and T1c and T2c are relaxation times without contrast agent. C is the concentration of contrast agent in mM (the measured Gd^3+ concentrations by ICP-MS). […]

[8] = used for the Gd^3+ buffer system; read-out: Gd^3+-binding affinity; cited from earlier work
[9] = Water coordination number by terbium life time luminescence; assay type: physicochemical
Procedure: Measurement of Water Coordination Number by Terbium Life Time Luminescence. The number of water ligands coordinated to Gd^3+-CA1.CD2 complex was determined by measuring Tb^3+ luminescence decay in H2O or D2O. Tb^3+ excited state lifetime was measured using a fluorescence spectrophotometer (Photon Technology International, Inc.) with a 10 mm path length quartz cell at 22° ° C. Following excitation at 265 nm with a XenoFlash (Photon Technology International, Inc.), Tb^3+ emission was monitored at 545 nm in a time series experiment in both H2O and D2O systems. Luminescence decay lifetime was obtained by fitting the acquired data with a mono-exponential decay function. H2O in CA1.CD2 solution was replaced with D2O by lypholization and re-dissolved in D2O at least three times. A standard curve correlating the Δkobs with water number under our experimental conditions was established by using well-characterized chelators, such as EDTA (q=3), DTPA (q=1), NTA (q=5), and Aquo Tb^3+ (q=9) solution with R^2=0.997.^26,27 Water number coordinated to Tb^3+-CA1.CD2 complex was then obtained by fitting the acquired Δkobs value to the standard curve.
The numbers of water ligands coordinated to Gd^3+-CA1.CD2 and variants complex were determined by measuring Tb^3+ luminescence decay in H2O or D2O (Yang et al., 2008). Tb^3+ excited state lifetime was measured using a fluorescence spectrophotometer (Photon Technology International, Inc.) with a 10 mm path length quartz cell at 22° C. Following excitation at 265 nm with a XenoFlash (Photon Technology International, Inc.), Tb^3+ emission was monitored at 545 nm in a time series experiment in both H2O and D2O systems. Luminescence decay lifetime was obtained by fitting the acquired data with a mono-exponential decay function. H2O in CA1.CD2 solution was replaced with D2O by lypholization and re-dissolved in D2O at least three times. A standard curve correlating the Δkobs with water number under our experimental conditions was established by using well-characterized chelators, such as EDTA (q=3). DTPA (q=1), NTA (q=5), and Aquo Tb^3+ (q=9) solation with R^2=0.997.^26, 27 Water number coordinated to Tb^+-CA1.CD2 complex was then obtained by fitting the acquired Δkobs value to the standard curve.

[10] = Serum stability in human serum at 37° C., SDS-PAGE; assay type: in vitro ADME; details: 24 hours at 37° C., SDS Page
Procedure: Serum stability. […] The degradation of the protein (disappearance of 12 kDa protein band) was analyzed by SDS-PAGE and visualized by coomassie blue staining. In parallel, the degradation of the protein was also analyzed by immunoblot using antibodies OX54 or PabCD2. The identities of the 12 kDa bands as CA1.CD2 were always verified by immunobloting using antibody PabCD2.
[…] The degradation of the protein (disappearance of 12 kDa protein band) was analyzed by SDS-PAGE and visualized by coomassie blue staining for protein and idiol staining for PEG moiety. In parallel, the degradation of the protein was also analyzed by immunoblot using antibodies OX54 or PabCD2. The identities of CA1.CD2 and pegylated variants were verified by immunoblotting using antibody PabCD2.and idiol staining.

PC-3 = experiment: Uptake and internalization by confocal fluorescent microscope; assay type: cell-based
Procedure: (§2) DU-145, PC-3 and H441 cells (8×10^4) were seeded in 4-well chambers (BD) at 37° C. overnight. In the second day, fresh medium was changed. Contrast agents were incubated with cells at different time point at 37° C. Subsequently, the cells were washed with PBS for three times and fixed with 3% formaldehyde for 15 minutes. After cells were rinsed in PBS for three times, 0.2% Triton X-100 was added to permeablize cells for 10 minutes. The cells were washed and four drops of Image-IT Fx signal enhancer (Invitrogen, CA) was applied in each sample to block unspecific binding. After three time washes, CD2 antibody was used as primary antibody. Goat anti-mouse IgG conjugated with Alexa Fluor 488 was used as detection antibody (Invitrogen, CA). The fluorescence image was acquired using 488 nm and UV lasers.

DU-145 = experiment: as above; assay type: cell-based
Procedure: as §2

Molecule: O=C(O)CN(CCN(CC(=O)O)CC(=O)O)CCN(CC(=O)O)CC(=O)O [DTPA]
relaxivity ([1]; clinically used DTPA, field not stated): 5 mM⁻¹ s⁻¹
Log (KGd/KCa) [2]: 11.70
Metal binding constant (Log Ka) Ca^2+ [2]: 10.75
Log (KGd/KZn) [3]: 4.17
water number q of standard chelators [4]: 1
Log (KGd/KMg) [5]: 4.25

Molecule: O=C(O)CN(CCN(CC(=O)O)CC(=O)O)CC(=O)O [EDTA]
water number q of standard chelators [4]: 3

r1 ([7]; B0 1.5 T): 5.4 mM⁻¹ s⁻¹
r1 ([7]; B0 3 T): 4.2 mM⁻¹ s⁻¹
Molecule: O=C([O-])CN(CCN(CC(=O)[O-])CC(=O)O)CCN(CC(=O)[O-])CC(=O)O.[Gd+3] [Gd-DTPA, reference compound]
contrast enhancement at the same concentration as Gd-CA1.CD2 (CD-1 mice): failed to exhibit contrast enhancements
contrast enhancement in T1 weighted imaging of samples [6]: did not lead to significant enhancement

Molecule: O=C(O)CN(CC(=O)O)CC(=O)O [NTA, nitrilotriacetic acid]
Kd [8]: 2.6 pM
water number q of standard chelators [4]: 5

Molecule: Albumin
r1 ([1]; B0 0.25 T): 11.5 mM⁻¹ s⁻¹

Molecule: Gadomer-17
r1 ([1]; B0 1.5 T): 13 mM⁻¹ s⁻¹

Molecule: troponin C [reference compound]
hydration number (water number in the coordination shell) [9]: 1.8

B1: CA1.CD2-P40: CA1.CD2 PEGylated with PEG40 (conjugate)
chain: RDSGTVWGALGHGINLNIPNFQMTDDIDEVRWERGSTLVAEFKRKMKPFLKSGAFEILANGDLKIKNLTRDDSGTYNVTVYSTNGTRILNKALDLRILE
stability in human serum [10]: remains intact

B2: CA1.CD2-521-Bom: Bom/GRP sequence grafted into CA1.CD2 (protein)
chain: RDSGTVWGALGHGIELNIPNFQMTDDIDEVRWERGSTLVAEFKRKMKPFLKSGGSGGGNQWAVGHLMGGSGGGAFEIDANGDLDIKNLTRDDSGTYNVTVYSTNGTRILNKALDLRILE
uptake in GRPR positive PC-3 cells (PC-3): uptake and internalization
uptake in GRPR positive DU-145 cells (DU-145): uptake and internalization
